Common to all, as to test: NCI-60 cell line screen, 48 h
The subject of test [1] is PC-3 prostate.
Test [2] deals with HL-60(TB) leukemia.
Test [3] has as its system CCRF-CEM leukemia.
The test system of test [4] is SK-MEL-5 melanoma.
Test [5] concerns MDA-MB-231 breast.
The subject of test [6] is HCC-2998 colon.
Test [7] concerns 786-0 renal.
The subject of test [8] is DU-145 prostate.
In test [9] the test system is HCT-15 colon.
The subject of test [10] is BT-549 breast.

This is an account of results in PubChem BioAssay (NCI).

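Five compound concentrations were applied to cells in 96-well plates for 48 hours; endpoints were derived by simple linear interpolation of the resulting dose-response curve. GI50: concentration for 50% inhibition of growth. Definition used: TGI = concentration required for complete inhibition of growth.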 A value given as a limit tells only on which side of the number the result lay.

In the case of `OC(COc1ccc(F)cc1)Cn1cnc2c(Cl)ncnc21` (stereo not given), the GI50 in test [1] is over 100 µM; in test [2], 36.3 µM; in [3] it was 50.8 µM; in test [4] it was 81.4 µM; in [5] it was 64.7 µM; in [6], 19.3 µM. The GI50 was over 100 µM in test [7], over 100 µM in test [8], 32.4 µM in test [9] and over 100 µM in test [10]. For the same compound, the TGI in test [1] is over 100 µM; in test [2], over 100 µM; in [3] it was over 100 µM; in test [4], over 100 µM; in test [5], over 100 µM; in [6], 42.3 µM. In addition, the TGI in [7], in test [8], in [9] and in test [10] was over 100 µM in each case.
For the compound `CS(=O)(=O)Nc1cccc(-c2cc(-c3ccccc3Cl)c(C#N)c(N)n2)c1`, the GI50 was 0.531 µM in test [1]; 0.361 µM in test [2]; 0.562 µM in test [3]; 0.448 µM in [4]; 0.712 µM in test [5]; 1.36 µM in test [6]. The GI50 in [7] was 0.803 µM; in test [8], 1.17 µM; in test [9], 0.402 µM; in [10], 0.532 µM. In addition, the TGI in test [1] is 14.1 µM; in [2], 13.4 µM; in test [3], over 82.4 µM; in test [4] it was 13.6 µM; in test [5], 15.5 µM; in test [6], 8.52 µM. Also, the TGI in [7] turned out to be 14.4 µM; in test [8], 13 µM; in test [9] it was 15.8 µM; in test [10], 15.4 µM.
Turning to `COC(=O)Nc1nc2ccc(C(=O)c3ccc(N(C)C4COC4)cc3)cc2[nH]1`, the GI50 is 0.379 µM in test [1]; 0.266 µM in test [2]; 0.309 µM in test [3]; 0.425 µM in [4]; 0.608 µM in test [5]; 0.716 µM in test [6]. Further, the GI50 in test [7] was 0.5 µM; in [8], 0.392 µM; in test [9] it was 0.303 µM; in test [10], 2.08 µM. In addition, the TGI in [1] was over 100 µM; in test [2], 2.85 µM; in test [3], over 100 µM; in test [4], 3.99 µM; in [5], over 100 µM; in [6], over 100 µM. Besides, the TGI in test [7], in [8], in test [9] and in test [10] was over 100 µM each time.
Take `C[C@@H]1Cc2c([nH]c3ccccc23)[C@@H](c2c(F)cc(NC3CN(CCCF)C3)cc2F)N1CC(F)(F)CO`: the GI50 in test [1] is 2.35 µM; in [2], 4.9 µM; in [3], 3.44 µM; in test [4], 1.92 µM; in test [5] it was 5.24 µM; in test [6], 1.93 µM. For the same compound, the GI50 in [7] is 8.68 µM; in [8] it was 6.52 µM; in test [9] it was 3.5 µM; in [10] it was 2.05 µM. Further, the TGI was 9.67 µM in test [1]; 22.5 µM in test [2]; 15.3 µM in test [3]; 3.68 µM in [4]; 20.8 µM in test [5]; 4 µM in test [6]. Also, the TGI in test [7] is 24.7 µM; in test [8] it was 20.2 µM; in [9], 12.7 µM; in test [10], 4.04 µM.
With `O=C(Nc1ccccc1O)c1ccc(CNc2ccnc(C(F)(F)F)c2)cc1`, the GI50 in [1] is 2.72 µM; in test [2], 1.85 µM; in [3] it was 0.354 µM; in [4] it was 2.2 µM; in test [5] it was 9.29 µM; in test [6], 10.2 µM. Besides, the GI50 in test [7] is 3.36 µM; in test [8] it was 3.38 µM; in [9] it was 11.8 µM; in [10] it was 3.43 µM. In addition, the TGI in [1] came to 48.4 µM; in test [2], 8.03 µM; in test [3], 12.8 µM; in [4] it was 10.2 µM; in [5], 50.6 µM; in [6], 26.5 µM. The TGI in test [7] was 13.6 µM; in test [8], 19.4 µM; in test [9], over 100 µM; in test [10] it was 50 µM.
For the compound `CCn1cc(-c2ccnc3[nH]ccc23)c(-c2cccc(NC(=O)Nc3ccc(OCc4ccccc4)cc3)c2)n1`, the GI50 in [1] was 10.6 µM; in test [2] it was 4.23 µM; in [3] it was 11.5 µM; in test [4], 13.5 µM; in test [5] it was 6.57 µM; in test [6], 13.2 µM. Besides, the GI50 was 6.82 µM in test [7], over 25 µM in test [8], 6.28 µM in test [9] and over 21.9 µM in [10]. In addition, the TGI in [1] was over 25 µM; in [2], 17.2 µM; in [3], over 25 µM; in test [4], over 25 µM; in test [5], over 25 µM; in [6], over 25 µM. The TGI in test [7], in test [8], in test [9] and in [10] was over 25 µM in each case.
Regarding `CN(C)c1ncc(-c2ccc(C(F)(F)F)cc2)c(NC2CCCCCC2)n1`, the GI50 in test [1] was 20.2 µM; in test [2], 15 µM; in test [3] it was 16.4 µM; in test [4] it was 14 µM; in test [5], 13.3 µM; in [6], 13.8 µM. Also, the GI50 was 14.8 µM in test [7], 27.1 µM in [8], 17.1 µM in [9] and 20.4 µM in test [10]. Further, the TGI in [1] was 87.1 µM; in test [2], 34 µM; in test [3], 35.8 µM; in test [4] it was 28.3 µM; in test [5], 28.8 µM; in [6], 28.8 µM. Further, the TGI in test [7] was 33.4 µM; in [8], over 100 µM; in test [9], 48.8 µM; in [10], 44.4 µM.
